Square brackets hold non-standard residues; d marks the D form. Peptide text beside a SMILES is read from it. * marks the point of attachment. Nle = CCCC[C@H](N)C(=O)O; Cbz = O=C(OCc1ccccc1)*

The test system of assay [1] is Notch-1. Description: Notch Western blot in MDA-MB231 cells. In kind it is cell-based, human. The procedure: Notch silencing was confirmed by Western blot using commercial goat polyclonal antibodies from Santa Cruz Biotechnology to Notch-1 (C-20, Cat# sc-6014 S) and Notch-4 (C-19, Cat# sc-8644). Total cell lysates were prepared as follows: cells grown on 6 cm dishes were scraped in lysis buffer containing 1×PBS, 1% Nonidet P40, 0.5% deoxycholate, 0.1% SDS, freshly added aprotinin (45 μg/ml), phenylmethylsulfonyl fluoride (10 μg/ml), and sodium orthovanadate (10 μM). Lysates were sonicated 4 times for 5 seconds each, followed by 30 minutes incubation on ice. Lysates were centrifuged at 10,000 g for 20 minutes at 4° C. Supernatants were used as total cell lysates. Nuclear extracts were prepared as follows: 10,000,000 cells were pelleted, washed, and quickly frozen in a dry ice bath. Pellets were thawed by adding 100 μl of buffer 1 (10 mM HEPES, pH 7.9, 10 mM KCl, 1.5 mM MgCl2, 1 mM DTT). Nuclei were pelleted and lysed in 15 μl Buffer 2 (20 mM HEPES, pH7.9, 0.4 M NaCl, 1.5 mM MgCl2, 25% glycerol, 0.2 mM EDTA, 1 mM DTT, and 0.5 mM PMSF). Lysates were diluted in 50-70 μl Buffer 3 (20 mM HEPES, pH 7.9, 50 mM KCl, 20% glycerol, 0.2 mM EDTA, 1 mM DTT, 0.5 mM PMSF). Protein concentrations were estimated using the BCA protein assay (Pierce). Supernatants were boiled in reducing SDS sample buffer (Novex). Twenty μg protein per lane were run on a 3-8% Tris acetate gel (Invitrogen) in Tris Acetate Reducing Running Buffer (Novex). Protein bands were transferred onto PVDF membranes (BioRad) using transfer buffer (Novex). Membranes were then blocked overnight at 4° C. in 2% blocking solution in TBS (Roche). Primary antibodies were diluted in 2% Boehringer blocking solution (total volume 5 ml). Membranes were incubated for one hour at room temperature with shaking, then washed 6 times for 10 minutes each in TBS wash buffer. Membranes were incubated in secondary antibody in 2% of blocking solution for 30 minutes, then washed 6 times for 10 minutes each at RT in wash buffer. Bands were detected with chemiluminescent reagent (Roche) according to the manufacturer's directions. […]

In assay [2] the test system is normal melanocytes. Description: Proteasome inhibitors, apoptosis of normal melanocyte cultures (Annexin V FITC flow cytometry). It counts as cell-based, human. Here is the method:
The proteasome inhibitors lactacystin, MG-132, and bortezomib were evaluated for the ability to induce apoptosis in malignant melanoma cell lines (n=3) including an early passage line, RJ002L. MG-132 was obtained from Calbiochem (La Jolla, Calif.) and dissolved in DMSO. Lactacystin was purchased from Sigma Chemical Co. (St. Louis, Mo.) and dissolved in PBS. Bortezomib was obtained from a pharmacy as VELCADE (bortezomib) for Injection from a single use vial for intravenous use only (Millennium Pharmaceuticals, Cambridge, Mass.). A cell line with wild-type p53 (RJ002L) and two melanoma cell lines with mutant p53 alleles (C8161 and MUM2B) were included in this study. Two additional melanoma cell lines were also used: cutaneous SK-MeI-28 cells and primary, early passage MG012 cells. In addition, five normal melanocyte culture cell lines (MC-005, MC-006, MC-008, MC-009 and MC-011) were examined. Prior to testing, the melanoma cell lines were maintained in RPMI supplemented with 10% FBS. Normal human melanocytes were isolated from neonatal foreskins as previously described (Qin J et al., 2004, Mol Cancer Ther 3:895-902, 2004) and cultured with medium 154 containing growth supplements (Cascade Biologics, Portland, Oreg.).
To assess the effect of proteasome inhibitors on the cell lines, the cells were grown in suitable culture media as described above. […]
Following treatment with the proteasome inhibitors, the melanoma and melanocyte cell cultures were assayed for apoptotic cells using the APO TARGET Annexin V FITC staining kit (Biosource, Camarillo, Calif.) according to the manufacturer's instructions followed by flow cytometric analysis using FACScaliber (Becton Dickinson, Palo Alto, Calif.) as described in Qin, J. et al., 2001, Nat Med 7: 385-386. In some cases, cell cycle and apoptosis analysis was measured using propidium iodide staining and flow cytometry as described. […] For cell analysis, DNA histograms were analyzed using MultiCycle for Windows (Phoenix Flow Systems, San Diego, Calif.) as described in Denning, M. F. et al., 1998, J Biol Chem 273: 29995-30002.

As for “5′-AAGTGTCTGAGGCCAGCAAGA-3′ [Notch-1 siRNA]”, in assay [1] (MDA-MB231 / HMEC, data not shown), the “expression of Notch-1 and Notch-4” value is “strongly inhibited the expression of both Notch-1 and -4”.
Regarding `CC(C)C[C@@H](C=O)NC(=O)[C@H](CC(C)C)NC(=O)[C@H](CC(C)C)NC(=O)OCc1ccccc1` [MG-132, benzoxycarbonyl-Leucyl-Leucyl-Leucyl-aldehyde] (Cbz-Leu-Leu-Leu-aldehyde), in assay [2] (MC-005, MC-006, MC-008, 24 hrs, 1, 5 or 10 μM), the cells undergoing apoptosis result is given as “No more than 10%”.
For `CC(C)C[C@H](NC(=O)[C@H](Cc1ccccc1)NC(=O)c1cnccn1)B(O)O` [bortezomib, N-(2-pyrazine)carbonyl-L-phenylalanine-L-leucine boronic acid], the apoptotic response result in assay [2] (MC009 and MC011, 0.01 to 10 μM, 24 hrs continuous exposure) is listed as “less than 10%”.
Consider `CCCC[C@@H](C=O)NC(=O)[C@H](CC(C)C)NC(=O)[C@H](CC(C)C)NC(=O)OCc1ccccc1` [z-Leu-Leu-Nle-CHO, N-benzyloxycarbonyl-leucyl-leucyl-norleucinal] (Cbz-Leu-Leu-[Nle]-aldehyde), for which the “N^IC and N^TM levels” value in assay [1] (MDA-MB231, 0.5, 1 or 2 μM, 24 h, virtually complete at 2 μM) was “dose-dependent decrease in N^IC and relative accumulation of N^TM”.

The values are drawn from patent US20080220416A1, “Compositions for Inhibiting Cell Growth and Inducing Apoptosis in Cancer Cells and Methods of Use Thereof” (THE BOARD OF TRUSTEES OF THE UNIVERSITY OF ILLINOI, priority 2004, published 2008).
